Data: patent US4963544A, “3-pyrrolidinylthio-1-azabicyclo[3.2.0]-hept-2-ene-2-carboxylic acid compounds” (Fujisawa Pharmaceutical Company, Ltd., priority 1988, dated 1990)
Converted amounts (≈) assume the structure as drawn.

Tested on: E. Coli 31
Assay: in vitro antimicrobial activity, two-fold agar-plate dilution method
Type: cell-based
Settings: Escherichia coli; test strain E. Coli 31; 10^6 viable cells per ml; HI-agar; 37° C., 20 hours; read-out: MIC (minimal inhibitory concentration)
Experimental: in vitro Antimicrobial Activity was determined by the two-fold agar-plate dilution method as described blow.
One loopful of an overnight culture of a test strain in Trypticase-soy broth (10^6 viable cells per ml) was streaked on heart infusion agar (HI-agar) containing graded concentrations of the test compound, and the minimal inhibitory concentration (MIC) was expressed in terms of μg/ml after incubation at 37° C. for 20 hours.

MIC: 0.05 µg/mL (≈ 0.127 µM)
Structure (SMILES): C[C@@H](O)[C@H]1C(=O)N2C(C(=O)O)=C(S[C@@H]3CN[C@H](Cn4ccnc4)C3)[C@H](C)[C@H]12 [Example 2, (4R,5S,6S)-6-((IR)-1-hydroxyethyl) -3-((2S,4S)-2-(imidazol-1-yl)-methylpyrrolidin-4-yl) thio-4-methyl-7-oxo-1-azabicyclo(3.2.0) -hept-2-ene-2-carboxylic acid]
